From patent publication US12180187B2, “1-phenyl-5-azinylpyrazolyl-3-oxyalkyl acids and their use for controlling unwanted plant growth” (BAYER AKTIENGESELLSCHAFT, priority 2019, dated 2024)

Legend:
ALOMY [1] = assay: Pre-emergence action against ALOMY, 1280 g/ha; format: in vivo, Alopecurus myosuroides; settings: visual scoring after about 3 weeks vs untreated controls, 100% = plants have died, 0% = like control plants
Summary of the method: (§1)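 Each pot was doubly sown in sandy loam and covered, then its soil surface was treated with compound suspension or emulsion containing 0.5% additive at 600 L/ha water. Plants grew in a greenhouse; effect was rated visually as percentages versus controls after about 3 weeks.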

DIGSA [2] = assay: Pre-emergence action against DIGSA, 1280 g/ha; format: in vivo, Digitaria sanguinalis; settings: visual scoring after about 3 weeks vs untreated controls, 100% = plants have died, 0% = like control plants
Summary of the method: as §1

LOLRI [3] = assay: Pre-emergence action against LOLRI, 1280 g/ha; format: in vivo, Lolium rigidum; settings: visual scoring after about 3 weeks vs untreated controls, 100% = plants have died, 0% = like control plants
Summary of the method: as §1

POAAN [4] = assay: Pre-emergence action against POAAN, 1280 g/ha; format: in vivo, Poa annua; settings: visual scoring after about 3 weeks vs untreated controls, 100% = plants have died, 0% = like control plants
Summary of the method: as §1

SETVI = assay: Pre-emergence action against SETVI, 1280 g/ha; format: in vivo, Setaria viridis; settings: visual scoring after about 3 weeks vs untreated controls, 100% = plants have died, 0% = like control plants
Summary of the method: as §1

AMARE [5] = assay: Pre-emergence action against AMARE, 1280 g/ha; format: in vivo, Amaranthus retroflexus; settings: scored visually after about 3 weeks vs untreated controls (100% = plants have died)
Summary of the method: as §1

KCHSC [6] = assay: Pre-emergence action against KCHSC, 1280 g/ha; format: in vivo, Bassia scoparia; settings: scored visually after about 3 weeks vs untreated controls (100% = plants have died)
Excerpt: 1. Pre-Emergence Herbicidal Effect and Crop Plant Compatibility a) Seeds of mono- and dicotyledonous weed plants are placed in plastic pots in sandy loam soil (doubly sown with one species each of mono- or dicotyledonous weed plants per pot) and covered with soil. The compounds of the invention, formulated in the form of wettable powders (WP) or as emulsion concentrates (EC), are then applied onto the surface of the covering soil as aqueous suspension or emulsion with addition of 0.5% additive at a water application rate equivalent to 600 litres per hectare. After the treatment, the pots are placed in a greenhouse and kept under good growth conditions for the trial plants. After about 3 weeks, the effect of the preparations is scored visually in comparison with untreated controls as percentages. For example, 100% activity=the plants have died, 0% activity=like control plants. 1. Pre-Emergence Effectiveness Tables 1 to 12 below show the effects of selected compounds of the general formula (I) according to Tables 1 and 2 on various harmful plants and at an application rate corresponding to 1280 g/ha, which were obtained by the experimental procedure mentioned above.

MATIN [7] = assay: Pre-emergence action against MATIN, 1280 g/ha; format: in vivo, Tripleurospermum inodorum (Matricaria inodora); settings: scored visually after about 3 weeks vs untreated controls (100% = plants have died)
Summary of the method: as §1

STEME [8] = assay: Pre-emergence action against STEME, 1280 g/ha; format: in vivo, Stellaria media; settings: scored visually after about 3 weeks vs untreated controls (100% = plants have died)
Summary of the method: as §1

VERPE [9] = assay: Pre-emergence action against VERPE, 1280 g/ha; format: in vivo, Veronica persica; settings: scored visually after about 3 weeks vs untreated controls (100% = plants have died)
Summary of the method: as §1

VERPE [10] = assay: Post-emergence action against VERPE, 1.28 kg/ha; format: in vivo, Veronica persica; settings: dosage 1280 g/ha, visual rating about 3 weeks after treatment vs untreated controls (100% = plants died)
Summary of the method: (§2)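 Percent activity was scored visually ~3 wk post-spray relative to untreated plants. Treatment was post-emergence at the one-leaf stage using WP/EC in water with 0.5% additive (600 L/ha).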

ECHCG [11] = assay: Pre-emergence action against ECHCG, 1280 g/ha; format: in vivo, Echinochloa crus-galli; settings: visual scoring after about 3 weeks vs untreated controls, 100% = plants have died, 0% = like control plants
Summary of the method: as §1

ALOMY [12] = assay: Post-emergence action against ALOMY, 1.28 kg/ha; format: in vivo, Alopecurus myosuroides; settings: dosage 1280 g/ha, visual rating about 3 weeks after treatment vs untreated controls
Summary of the method: as §2

DIGSA [13] = assay: Post-emergence action against DIGSA, 1.28 kg/ha; format: in vivo, Digitaria sanguinalis; settings: dosage 1280 g/ha, visual rating about 3 weeks after treatment vs untreated controls
Summary of the method: as §2

ECHCG [14] = assay: Post-emergence action against ECHCG, 1.28 kg/ha; format: in vivo, Echinochloa crus-galli; settings: dosage 1280 g/ha, visual rating about 3 weeks after treatment vs untreated controls
Summary of the method: as §2

POAAN [15] = assay: Post-emergence action against POAAN, 1.28 kg/ha; format: in vivo, Poa annua; settings: dosage 1280 g/ha, visual rating about 3 weeks after treatment vs untreated controls
Summary of the method: as §2

KCHSC [16] = assay: Post-emergence action against KCHSC, 1.28 kg/ha; format: in vivo, Bassia scoparia; settings: dosage 1280 g/ha, visual rating about 3 weeks after treatment vs untreated controls (100% = plants died)
Summary of the method: as §2

MATIN [17] = assay: Post-emergence action against MATIN, 1.28 kg/ha; format: in vivo, Tripleurospermum inodorum (Matricaria inodora); settings: dosage 1280 g/ha, visual rating about 3 weeks after treatment vs untreated controls (100% = plants died)
Summary of the method: as §2

ABUTH = assay: Post-emergence action against ABUTH, 1.28 kg/ha; format: in vivo, Abutilon theophrasti; settings: dosage 1280 g/ha, visual rating about 3 weeks after treatment vs untreated controls (100% = plants died)
Summary of the method: as §2

AMARE [18] = assay: Post-emergence action against AMARE, 1.28 kg/ha; format: in vivo, Amaranthus retroflexus; settings: dosage 1280 g/ha, visual rating about 3 weeks after treatment vs untreated controls (100% = plants died)
Summary of the method: as §2

STEME [19] = assay: Post-emergence action against STEME, 1.28 kg/ha; format: in vivo, Stellaria media; settings: dosage 1280 g/ha, visual rating about 3 weeks after treatment vs untreated controls (100% = plants died)
Summary of the method: as §2

LOLRI [20] = assay: Post-emergence action against LOLRI, 1.28 kg/ha; format: in vivo, Lolium rigidum; settings: dosage 1280 g/ha, visual rating about 3 weeks after treatment vs untreated controls
Summary of the method: as §2

| Compound | Pre-emergence action against ALOMY (ALOMY [1]) [%] | Pre-emergence action against DIGSA (DIGSA [2]) [%] | Pre-emergence action against LOLRI (LOLRI [3]) [%] | Pre-emergence action against POAAN (POAAN [4]) [%] | Pre-emergence action against SETVI (SETVI) [%] | Pre-emergence action against AMARE (AMARE [5]) [%] | Pre-emergence action against KCHSC (KCHSC [6]) [%] | Pre-emergence action against MATIN (MATIN [7]) [%] | Pre-emergence action against STEME (STEME [8]) [%] | Pre-emergence action against VERPE (VERPE [9]) [%] | Post-emergence action against VERPE (VERPE [10]) [%] | Pre-emergence action against ECHCG (ECHCG [11]) [%] | Post-emergence action against ALOMY (ALOMY [12]) [%] | Post-emergence action against DIGSA (DIGSA [13]) [%] | Post-emergence action against ECHCG (ECHCG [14]) [%] | Post-emergence action against POAAN (POAAN [15]) [%] | Post-emergence action against KCHSC (KCHSC [16]) [%] | Post-emergence action against MATIN (MATIN [17]) [%] | Post-emergence action against ABUTH (ABUTH) [%] | Post-emergence action against STEME (STEME [19]) [%] | other results |
| --- | --- | --- | --- | --- | --- | --- | --- | --- | --- | --- | --- | --- | --- | --- | --- | --- | --- | --- | --- | --- | --- |
| C[C@@H](Oc1nn(-c2ccccc2F)c(-c2cnccn2)c1Br)C(=O)O [Example I-002] | 90 | 100 | 90 | 100 | 100 | 100 | 100 | 100 | 100 | 100 | 90 |  |  |  |  |  |  |  |  |  |  |
| CON(C)C(=O)COc1nn(-c2ccc(F)cc2F)c(-c2ccc(F)nc2)c1Br [Example X-025] | 100 | 100 | 100 | 100 | 100 | 100 | 100 | 100 | 100 | 100 | 100 | 100 | 100 | 100 | 100 | 100 | 90 | 90 |  |  |  |
| O=C(O)C1CCN(C(=O)COc2nn(-c3ccccc3F)c(-c3cncc(F)c3)c2Br)C1 (stereo not shown) [Example X-040] |  | 90 | 90 | 90 | 90 | 90 | 90 | 90 | 90 | 90 | 100 | 90 | 100 | 90 |  | 100 |  | 100 | 90 |  |  |
| O=C(O)COc1nn(-c2ccccc2F)c(-c2ccnnc2)c1Br [IV-002] |  | 90 |  | 100 | 100 | 100 | 90 | 100 | 100 |  | 90 | 100 |  | 100 |  | 100 | 90 | 90 | 90 | 100 | Post-emergence action against AMARE (AMARE [18]): 100% |
| COC(=O)[C@H](C)Oc1nn(-c2ccccc2F)c(-c2cncnc2)c1Br [VI-008] |  | 100 | 100 | 100 | 100 | 100 | 90 | 90 | 100 |  |  |  |  | 100 |  | 100 | 90 | 90 | 90 | 90 |  |
| CCOC(=O)COc1nn(-c2ccccc2C)c(-c2ccc(F)nc2)c1I [VII-058] | 90 | 100 | 100 | 100 | 100 | 100 | 90 | 100 | 100 | 100 | 90 | 100 | 100 | 100 | 100 | 100 |  | 90 | 90 | 90 | Post-emergence action against LOLRI (LOLRI [20]): 100%; Post-emergence action against AMARE (AMARE [18]): 100% |
| O=C(O)COc1nn(-c2ccc(F)cc2)c(-c2ccc(F)nc2)c1C(F)(F)F [VII-125] |  | 100 | 100 | 100 | 100 | 90 | 100 | 90 | 90 | 90 | 100 | 100 | 100 | 100 | 90 | 100 | 90 | 90 |  | 90 | Post-emergence action against AMARE (AMARE [18]): 90% |
